Measurements as given in ChEMBL document CHEMBL4043194, “Nrf2 activators from Glycyrrhiza inflata and their hepatoprotective activities against CCl4-induced liver injury in mice” (Bioorg Med Chem, 2017).
Calls of active or inactive are those of the source. The rule behind the calls is not given here.

Legend:
[1] = MRT (0 to infinity) in Sprague-Dawley rat at 50 mg/kg, po administered as single dose measured after 0.08 to 24 hrs post dose by LC/MS/MS method; type: ADME, organism-based; conditions: in vivo
[2] = target: T1, Nuclear factor erythroid 2-related factor 2 (Homo sapiens) (UniProt Q16236); experiment: Activation of Nrf2 (unknown origin) expressed in human HepG2 cells at 10 uM incubated for 6 hrs by ARE-driven luciferase reporter gene assay relative to untreated control; type: cell-based
T1 sequence (whole entry): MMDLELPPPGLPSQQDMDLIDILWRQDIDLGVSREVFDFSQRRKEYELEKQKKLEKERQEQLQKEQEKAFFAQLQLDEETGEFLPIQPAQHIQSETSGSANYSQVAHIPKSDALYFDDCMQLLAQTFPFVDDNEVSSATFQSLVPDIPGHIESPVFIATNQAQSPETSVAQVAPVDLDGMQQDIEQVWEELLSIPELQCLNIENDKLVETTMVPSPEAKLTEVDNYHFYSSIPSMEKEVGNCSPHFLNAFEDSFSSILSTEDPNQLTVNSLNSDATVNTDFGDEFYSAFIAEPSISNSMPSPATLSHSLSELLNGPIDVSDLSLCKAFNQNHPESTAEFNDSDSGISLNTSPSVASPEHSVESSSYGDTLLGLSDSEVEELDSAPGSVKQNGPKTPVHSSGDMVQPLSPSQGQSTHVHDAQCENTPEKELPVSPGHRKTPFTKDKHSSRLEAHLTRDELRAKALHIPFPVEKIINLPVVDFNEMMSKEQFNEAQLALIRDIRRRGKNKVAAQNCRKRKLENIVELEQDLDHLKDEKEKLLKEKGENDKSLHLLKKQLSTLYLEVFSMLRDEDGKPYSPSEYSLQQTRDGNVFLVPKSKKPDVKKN

[3] = test system: Rattus norvegicus; experiment: VRT (0 to infinity) in Sprague-Dawley rat at 50 mg/kg, po administered as single dose measured after 0.08 to 24 hrs post dose by LC/MS/MS method; type: ADME, organism-based; conditions: in vivo
[4] = test system: HepG2; experiment: Cytotoxicity in human HepG2 cells expressing Nrf2/ARE-driven luciferase at 10 to 40 uM incubated for 6 hrs; type: cell-based; conditions: hepg2, 6 h
[5] = target: T1, Nuclear factor erythroid 2-related factor 2 (Homo sapiens); experiment: Activation of Nrf2 (unknown origin) expressed in human HepG2 cells at 2.5 to 10 uM incubated for 6 hrs by ARE-driven luciferase reporter gene assay; type: cell-based
[6] = Tmax in Sprague-Dawley rat at 50 mg/kg, po administered as single dose measured after 0.08 to 24 hrs post dose by LC/MS/MS method; type: ADME, organism-based; conditions: in vivo
[7] = test system: Mus musculus; experiment: (§1) Hepatoprotective activity against CCL4-induced liver damage in ICR mouse assessed as LDH level at 50 mg/kg, po administered once daily for 7 consecutive days followed by CCL4 challenge 6 hrs after last dose and measured 24 hrs post CCL4 injection (reference value: 2818 U/L); type: functional
[8] = test system: Rattus norvegicus; experiment: Apparent clearance during terminal phase in Sprague-Dawley rat at 50 mg/kg, po administered as single dose measured after 0.08 to 24 hrs post dose by LC/MS/MS method; type: ADME, organism-based; conditions: in vivo
[9] = Cmax in Sprague-Dawley rat at 50 mg/kg, po administered as single dose measured after 0.08 to 24 hrs post dose by LC/MS/MS method; type: ADME, organism-based; set-up: dose 50 mg/kg, route oral; conditions: in vivo
[10] = test system: Mus musculus; experiment: Hepatoprotective activity against CCL4-induced liver damage in ICR mouse assessed as alanine aminotransferase level at 50 mg/kg, po administered once daily for 7 consecutive days followed by CCL4 challenge 6 hrs after last dose and measured 24 hrs post CCL4 injection (reference value: 1025 U/L); type: functional
[11] = Apparent volume of distribution during terminal phase in Sprague-Dawley rat at 50 mg/kg, po administered as single dose measured after 0.08 to 24 hrs post dose by LC/MS/MS method; type: ADME, organism-based; conditions: in vivo, read-out: Vz/F
[12] = target: T1, Nuclear factor erythroid 2-related factor 2 (Homo sapiens); experiment: Activation of Nrf2 (unknown origin) expressed in human HepG2 cells assessed as cytoprotection against CCL4-induced cell injury by measuring increase in cell viability at 2.5 to 20 uM relative to untreated control; type: cell-based
[13] = test system: Mus musculus; experiment: Hepatoprotective activity against CCL4-induced liver damage in ICR mouse assessed as aspartate aminotransferase level at 50 mg/kg, po administered once daily for 7 consecutive days followed by CCL4 challenge 6 hrs after last dose and measured 24 hrs post CCL4 injection (reference value: 625 U/L); type: functional
[14] = AUC (0 to t) in Sprague-Dawley rat at 50 mg/kg, po administered as single dose measured after 0.08 to 24 hrs post dose by LC/MS/MS method; type: ADME, organism-based; set-up: dose 50 mg/kg, time 0.08-24 hr, route oral; conditions: in vivo
[15] = MRT (0 to t) in Sprague-Dawley rat at 50 mg/kg, po administered as single dose measured after 0.08 to 24 hrs post dose by LC/MS/MS method; type: ADME, organism-based; conditions: in vivo
[16] = test system: Rattus norvegicus; experiment: AUC (0 to infinity) in Sprague-Dawley rat at 50 mg/kg, po administered as single dose measured after 0.08 to 24 hrs post dose by LC/MS/MS method; type: ADME, organism-based; set-up: dose 50 mg/kg, time infinity, route oral; conditions: in vivo
[17] = test system: Rattus norvegicus; experiment: VRT (0 to t) in Sprague-Dawley rat at 50 mg/kg, po administered as single dose measured after 0.08 to 24 hrs post dose by LC/MS/MS method; type: ADME, organism-based; conditions: in vivo
[18] = test system: Mus musculus; experiment: as §1, with “reduction in liver lesions by measuring neutrophil infiltration” for “LDH level”, “by hematoxylin-eosin staining based light microscopy” for “(reference value: 2818 U/L)”; type: functional, organism-based
[19] = Half life in Sprague-Dawley rat at 50 mg/kg, po administered as single dose measured after 0.08 to 24 hrs post dose by LC/MS/MS method; type: ADME, organism-based; conditions: in vivo
[20] = test system: Mus musculus; experiment: as §1, with “reduction in liver lesions by measuring necrosis” for “LDH level”, “by hematoxylin-eosin staining based light microscopy” for “(reference value: 2818 U/L)”; type: functional, organism-based
[21] = test system: Mus musculus; experiment: as §1, with “reduction in liver lesions by measuring ballooning degeneration” for “LDH level”, “by hematoxylin-eosin staining based light microscopy” for “(reference value: 2818 U/L)”; type: functional, organism-based
[22] = test system: Mus musculus; experiment: as §1, with “reduction in liver lesions by measuring necrosis” for “LDH level”, “100” for “50”, “by hematoxylin-eosin staining based light microscopy” for “(reference value: 2818 U/L)”; type: functional, organism-based
[23] = test system: Mus musculus; experiment: Hepatoprotective activity against CCL4-induced liver damage in ICR mouse assessed as alanine aminotransferase level at 100 mg/kg, po administered once daily for 7 consecutive days followed by CCL4 challenge 6 hrs after last dose and measured 24 hrs post CCL4 injection (reference value: 1025 U/L); type: functional, organism-based
[24] = test system: Mus musculus; experiment: (§2) Hepatoprotective activity against CCL4-induced liver damage in ICR mouse assessed as LDH level at 100 mg/kg, po administered once daily for 7 consecutive days followed by CCL4 challenge 6 hrs after last dose and measured 24 hrs post CCL4 injection (reference value: 2818 U/L); type: functional, organism-based
[25] = test system: Mus musculus; experiment: Hepatoprotective activity against CCL4-induced liver damage in ICR mouse assessed as aspartate aminotransferase level at 100 mg/kg, po administered once daily for 7 consecutive days followed by CCL4 challenge 6 hrs after last dose and measured 24 hrs post CCL4 injection (reference value: 625 U/L); type: functional, organism-based
[26] = test system: Mus musculus; experiment: as §2, with “reduction in liver lesions by measuring neutrophil infiltration” for “LDH level”, “by hematoxylin-eosin staining based light microscopy” for “(reference value: 2818 U/L)”; type: functional, organism-based
[27] = test system: Mus musculus; experiment: as §2, with “reduction in liver lesions by measuring ballooning degeneration” for “LDH level”, “by hematoxylin-eosin staining based light microscopy” for “(reference value: 2818 U/L)”; type: functional, organism-based
[28] = target: T1, Nuclear factor erythroid 2-related factor 2 (Homo sapiens); experiment: Activation of Nrf2 (unknown origin) expressed in human HepG2 cells at 2.5 to 20 uM incubated for 6 hrs by ARE-driven luciferase reporter gene assay; type: cell-based
[29] = test system: HepG2; experiment: Cytotoxicity in human HepG2 cells expressing Nrf2/ARE-driven luciferase at 20 to 40 uM incubated for 6 hrs; type: cell-based; conditions: hepg2, 6 h

MRT inf [1] [h]	fold change (FC) [2]	VRT [3] [hr2]	Tmax [6] [h]	CLz/F [8] [L/h/kg]	Cmax [9] [ng/mL]	Vd/F [11] [L/kg]	AUC(0-t) [14] [ng·h/mL]	MRT last [15] [h]	AUC [16] [µg·h/L]	VRT(t) [17] [hr2]	half-life [19] [min]	Activity [28]	Molecule	Activity [7]	Activity [10]	Activity [12] [%]	Activity [13]	Activity [18]	Activity [20]	Activity [21]	further results
14.5	4.07	256.28	2.5	23.39	96.8	370	837	8.48	993.88	40.43	620		C=CC(C)(C)c1cc(/C=C/C(=O)c2ccc(O)cc2)c(OC)cc1O [LICOAGROCHACONE A]	800 - 1200 U/L	70 - 100 U/L	> 60	150 - 180 U/L	Active	Active	Active	Activity [4]: Toxic; Activity [5]: Dose-dependent effect
													SILYMARIN								Activity [22]: Active; Activity [23]: 70 to 100 U/L; Activity [24]: 800 to 1200 U/L; Activity [25]: 150 to 180 U/L; Activity [26]: Active; Activity [27]: Active
	5.17											Dose-dependent effect	COc1c(/C=C/C(=O)c2ccc(O)cc2)ccc(O)c1O	800 - 1200 U/L	70 - 100 U/L	> 60	150 - 180 U/L	Active	Active	Active	Activity [29]: Toxic
3.98	4.09	217.15	0.5	20.97	228	154	686	3.98	1154.92	9.97	439	Dose-dependent effect	COc1cc(O)ccc1/C=C/C(=O)c1ccc(O)cc1 [ECHINATIN]	800 - 1200 U/L	70 - 100 U/L	> 60	150 - 180 U/L	Active	Active	Active	Activity [29]: Toxic
